Twelve compounds from US11072741B2, “Optically anisotropic layer, method for producing the optically anisotropic layer, a laminate, polarizing plate, display device, liquid crystal compound, method for producing the liquid crystal compound, and carboxylic acid compound” (FUJIFILM Corporation, priority 2014, dated 2021) can be followed below.

Molecules are shown by their SMILES.

The nature of data set [1]: Evaluation of phase transition temperature by polarizing microscope. It counts as physicochemical. Conditions: for TNi(° C.) Isotropic Phase Transition Point / Tsm—N(° C.) Sm—N Transition Point: during temperature increase; for Phase Transition Temperature Evaluation of Decrease: versus comparative compound with the same Ar and side chain portion of Formula (Ia). From the text: Here, the temperature at which the compound transitions from the smectic phase to the nematic phase may be easily measured by observation of the composition employing polarized light microscopy. For example, in the nematic phase, a schlieren texture specific to the nematic phase is observed, while the texture transitions to a focal conic fan texture in a smectic A phase. Therefore, the phase transition temperature can be measured by observing the textures with a polarizing microscope while increasing or decreasing the temperature.
The phase transition temperatures of the synthesized liquid crystal compounds of the Examples and Comparative Examples were observed using a polarizing microscope to evaluate the degrees of temperature decrease. Specifically, the compounds of the Examples were compared to the compounds of the Comparative Examples, which have different structures for the side chain portions thereof. That is, the phase transition temperature of a compound of a Comparative Example having Ar (the aromatic ring at the center of General Formula 1) in common with the Examples and a side chain portion represented by Formula (Ia) below was used as a reference. Evaluations of A through C were assigned according to the degree of temperature decrease from the reference phase transition temperature.
(§1) For example, compound (I-1) and (I-2) were compared to Comparative Compound (Ia-1), and Compound (III-3) was compared to Comparative Compound (IIIa-3). The evaluation was carried out based on the following criteria.
A: decrease in melting point or Sm-N (smectic-nematic) transition temperature is 20° C. or greater
B: decrease in melting point or Sm-N (smectic-nematic) transition temperature is 5° C. or greater and less than 20° C.
C: decrease in melting point or Sm-N (smectic-nematic) transition temperature is less than 5° C.
With respect to the phase transition temperature, the numerical value in parentheses represents the numerical value during temperature decrease, and other numerical values represent a numerical value during temperature increase.

The nature of data set [2]: Measurement and evaluation of solubility in MEK and CPN. Type of data set: physicochemical. The settings on record: for Solubility CPN wt %: cyclopentanone; for Solubility CPN wt % / Solubility MEK wt %: room temperature, visual observation, 5 wt % increments; for Solubility MEK wt %: methyl ethyl ketone; for Solubility Evaluation: versus comparative compound with the same Ar and side chain portion of Formula (Ia). The protocol:
Solubility measurements of the synthesized liquid crystal compounds were conducted by the following method. 50 mg of each compound was weighted into a 1.5 mL sample bottle, and solvent was added until the solid component became 40 wt % (75 mg). The solubility was determined to be 40 wt % if clear under visual observation after shaking well manually at room temperature. If undissolved residue was present, solvent was added such that the solid component became 35 wt % (+18 mg). The solubility was determined to be 35 wt % if clear under visual observation after shaking well manually at room temperature. If undissolved residue was present, solvent was added such that the solid component became 30 wt %. Similar operations were performed in increments of 5 wt %, and repeated until the solid component became 5 wt %. If undissolved residue was present, the solubility was determined to be less than 5 wt % (<5 wt %), and measurements were completed. MEK (methyl ethyl ketone) and CPN (cyclopentanone) were utilized as solvents for measuring solubility.
The measured values of solubility were evaluated. The evaluations were conducted by using solubility of a compound of a Comparative Example having Ar (the aromatic ring at the center of General Formula 1) in common with the Examples and a side chain portion represented by Formula (Ia) as a reference, in a manner similar to that in the evaluation of the phase transition temperature. Evaluations of A through C were assigned according to the degree of improvement in solubility from the reference solubility.
as §1
A: solubility improved twofold or greater in plural solvents or a single solvent
B: solubility was the same or improved up to twofold in plural solvents or a single solvent
C: no improvement in solubility in plural solvents or a single solvent

In turn, `C=C(C)C(=O)OCCNC(=O)OCCc1ccc(OC(=O)[C@H]2CC[C@H](C(=O)Oc3ccc(OC(=O)[C@H]4CC[C@H](C(=O)Oc5ccc(CCOC(=O)NCCOC(=O)C(=C)C)cc5)CC4)c4c3SC(=C(C#N)C#N)S4)CC2)cc1` [Compound I-9] returned a melting point of 130 °C. Besides, in data set [1], the “TNi(° C.) Isotropic Phase Transition Point” value turned out to be 220 °C; the “Tsm—N(° C.) Sm—N Transition Point” value was found to be 158 °C; the “Phase Transition Temperature Evaluation of Decrease” value was “B (decrease in melting point or Sm-N (smectic-nematic) transition temperature is 5 °C or greater and less than 20° C.)”. For the same compound, in data set [2], the “Solubility CPN wt %” value came out at 20 wt %, the “Solubility MEK wt %” value came out at 5 wt % and the “Solubility Evaluation” value is reported as “B (solubility was the same or improved up to twofold in plural solvents or a single solvent)”.

`C=CCCCCCCCCC(=O)OCCc1ccc(OC(=O)[C@H]2CC[C@H](C(=O)Oc3ccc(OC(=O)[C@H]4CC[C@H](C(=O)Oc5ccc(CCOC(=O)CCCCCCCCC=C)cc5)CC4)c4c3SC(=C(C#N)C#N)S4)CC2)cc1` [Compound I-14] displayed a melting point of 126 °C. In data set [1], the “TNi(° C.) Isotropic Phase Transition Point” value worked out at 185 °C; the “Tsm—N(° C.) Sm—N Transition Point” value worked out at 179 °C; the “Phase Transition Temperature Evaluation of Decrease” value is “B (decrease in melting point or Sm-N (smectic-nematic) transition temperature is 5 °C or greater and less than 20° C.)”. In addition, in data set [2], the “Solubility CPN wt %” value came to 25 wt %, the “Solubility MEK wt %” value was 10 wt % and the “Solubility Evaluation” value is recorded as “A (solubility improved twofold or greater in plural solvents or a single solvent)”.

`N#CC(C#N)=C1Sc2c(OC(=O)[C@H]3CC[C@H](C(=O)Oc4ccc(CCOC(=O)CCCCCCCCC5CO5)cc4)CC3)ccc(OC(=O)[C@H]3CC[C@H](C(=O)Oc4ccc(CCOC(=O)CCCCCCCCC5CO5)cc4)CC3)c2S1` (stereo partly shown) [Compound I-15]: the melting point was 127 °C. In data set [1], the “TNi(° C.) Isotropic Phase Transition Point” value was 190 °C and the “Phase Transition Temperature Evaluation of Decrease” value is “A (decrease in melting point or Sm-N (smectic-nematic) transition temperature is 20 °C or greater)”. For the same compound, in data set [2], the “Solubility CPN wt %” value came out at 25 wt %, the “Solubility MEK wt %” value was found to be 10 wt % and the “Solubility Evaluation” value is recorded as “A (solubility improved twofold or greater in plural solvents or a single solvent)”.

`C=CC(=O)OCCCCOC(=O)Cc1ccc(OC(=O)[C@H]2CC[C@H](C(=O)Oc3ccc(OC(=O)[C@H]4CC[C@H](C(=O)Oc5ccc(CC(=O)OCCCCOC(=O)C=C)cc5)CC4)c4c3SC(=C(C#N)C#N)S4)CC2)cc1` [II-8] showed a melting point of 102 °C. In addition, in data set [1], the “TNi(° C.) Isotropic Phase Transition Point” value came out at 176 °C, the “Tsm—N(° C.) Sm—N Transition Point” value was 138 °C and the “Phase Transition Temperature Evaluation of Decrease” value was “A (decrease in melting point or Sm-N (smectic-nematic) transition temperature is 20 °C or greater)”. Moreover, in data set [2], the “Solubility CPN wt %” value stood at 20 wt %, the “Solubility MEK wt %” value is 10 wt % and the “Solubility Evaluation” value is “A (solubility improved twofold or greater in plural solvents or a single solvent)”.

Compound `C=CC(=O)OCCOC(=O)Cc1ccc(OC(=O)[C@H]2CC[C@H](C(=O)Oc3ccc(OC(=O)[C@H]4CC[C@H](C(=O)Oc5ccc(CC(=O)OCCOC(=O)C=C)cc5)CC4)c4c3SC(=C(C#N)C#N)S4)CC2)cc1` [II-9] yielded a melting point of 116 °C. Besides, in data set [1], the “TNi(° C.) Isotropic Phase Transition Point” value was 210 °C, the “Tsm—N(° C.) Sm—N Transition Point” value stood at 122 °C and the “Phase Transition Temperature Evaluation of Decrease” value was “A (decrease in melting point or Sm-N (smectic-nematic) transition temperature is 20 °C or greater)”. In addition, in data set [2], the “Solubility CPN wt %” value was 15 wt %, the “Solubility MEK wt %” value is listed as 5 wt % and the “Solubility Evaluation” value is on record as “B (solubility was the same or improved up to twofold in plural solvents or a single solvent)”.

The compound `C=CC(=O)OCCOC(=O)CCC(=O)OCCc1ccc(OC(=O)[C@H]2CC[C@H](C(=O)Oc3ccc(OC(=O)[C@H]4CC[C@H](C(=O)Oc5ccc(CCOC(=O)CCC(=O)OCCOC(=O)C=C)cc5)CC4)c4c3SC(=C(C#N)C(=O)OC)S4)CC2)cc1` [III-3] had a melting point of 100 °C. Further, in data set [1], the “TNi(° C.) Isotropic Phase Transition Point” value amounted to 118 °C and the “Phase Transition Temperature Evaluation of Decrease” value was “A (decrease in melting point or Sm-N (smectic-nematic) transition temperature is 20 °C or greater)”. Further, in data set [2], the “Solubility CPN wt %” value is recorded as 20 wt %, the “Solubility MEK wt %” value is 10 wt % and the “Solubility Evaluation” value is given as “A (solubility improved twofold or greater in plural solvents or a single solvent)”.

The compound `C=CC(=O)OCCCCCCOc1ccc(OC(=O)[C@H]2CC[C@H](C(=O)Oc3ccc(OC(=O)[C@H]4CC[C@H](C(=O)Oc5ccc(OCCCCCCOC(=O)C=C)cc5)CC4)c4c3SC(=C(C#N)C(=O)OC)S4)CC2)cc1` [IIIa-3] yielded a melting point of 131 °C. In addition, the “TNi(° C.) Isotropic Phase Transition Point” value in data set [1] was 240 °C. For the same compound, in data set [2], the “Solubility CPN wt %” value was 10 wt % and the “Solubility MEK wt %” value is listed as <5 wt %.

`C=CC(=O)OCCCCCCOc1ccc(OC(=O)[C@H]2CC[C@H](C(=O)Oc3ccc(OC(=O)[C@H]4CC[C@H](C(=O)Oc5ccc(OCCCCCCOC(=O)C=C)cc5)CC4)c4c3SC(=C(C#N)C(=O)OCCC(C)(C)O)S4)CC2)cc1` [IIIa-7]: the melting point is 106 °C. Further, the “TNi(° C.) Isotropic Phase Transition Point” value in data set [1] is 157 °C. Moreover, in data set [2], the “Solubility CPN wt %” value worked out at 40 wt % and the “Solubility MEK wt %” value came out at 20 wt %.

For the compound `C=CC(=O)OCCOC(=O)CCC(=O)OCCc1ccc(OC(=O)[C@H]2CC[C@H](C(=O)Oc3cc(C)c(OC(=O)[C@H]4CC[C@H](C(=O)Oc5ccc(CCOC(=O)CCC(=O)OCCOC(=O)C=C)cc5)CC4)c4c3SC(=C(C#N)C#N)S4)CC2)cc1` [IV-1], the melting point amounted to 148 °C. Also, in data set [1], the “TNi(° C.) Isotropic Phase Transition Point” value amounted to 172 °C and the “Phase Transition Temperature Evaluation of Decrease” value is “A (decrease in melting point or Sm-N (smectic-nematic) transition temperature is 20 °C or greater)”. Also, in data set [2], the “Solubility CPN wt %” value was 35 wt %, the “Solubility MEK wt %” value is on record as 15 wt % and the “Solubility Evaluation” value is listed as “A (solubility improved twofold or greater in plural solvents or a single solvent)”.

As for `C=CC(=O)OCCOC(=O)CCC(=O)OCCc1ccc(OC(=O)[C@H]2CC[C@H](C(=O)Oc3cc(OCC)c(OC(=O)[C@H]4CC[C@H](C(=O)Oc5ccc(CCOC(=O)CCC(=O)OCCOC(=O)C=C)cc5)CC4)c4c3SC(=C(C#N)C#N)S4)CC2)cc1` [IV-10], the melting point stood at 95 °C. For the same compound, the “TNi(° C.) Isotropic Phase Transition Point” value in data set [1] was found to be 99 °C. In addition, in data set [2], the “Solubility CPN wt %” value is given as 40 wt % and the “Solubility MEK wt %” value stood at 40 wt %.

The compound `C=CC(=O)OCCCCCCOc1ccc(OC(=O)[C@H]2CC[C@H](C(=O)Oc3cc(C)c(OC(=O)[C@H]4CC[C@H](C(=O)Oc5ccc(OCCCCCCOC(=O)C=C)cc5)CC4)c4c3SC(=C(C#N)C#N)S4)CC2)cc1` [IVa-1] showed a melting point of 189 °C. In data set [1], the “TNi(° C.) Isotropic Phase Transition Point” value was >250 ^ ° C. Besides, in data set [2], the “Solubility CPN wt %” value turned out to be 10 wt % and the “Solubility MEK wt %” value was <5 wt %.

On to `C=CC(=O)OCCCCCCOc1ccc(OC(=O)[C@H]2CC[C@H](C(=O)Oc3ccc(OC(=O)[C@H]4CC[C@H](C(=O)Oc5ccc(OCCCCCCOC(=O)C=C)cc5)CC4)c4c3SC(=C(C#N)C#N)S4)CC2)cc1` [Ia-1], for which the melting point came out at 148 °C. In addition, in data set [1], the “TNi(° C.) Isotropic Phase Transition Point” value is listed as >210 ^ ° C and the “Tsm—N(° C.) Sm—N Transition Point” value is 183 °C. For the same compound, in data set [2], the “Solubility CPN wt %” value amounted to 10 wt % and the “Solubility MEK wt %” value is recorded as <5 wt %.

Broadly, the melting point is the temperature, or range, at which the solid turns liquid.
